Measured values as given in PMC11277489, “Novel Piperazine Derivatives of Vindoline as Anticancer Agents” (International Journal of Molecular Sciences, 2024).

What was measured:
[1] = test system: CCRF-CEM; test: NCI60 five-dose screen, Leukemia; type: cell-based; details: Homo sapiens, Leukemia, five-dose screen, read-out: GI50
[2] = test system: HL-60(TB); test: NCI60 five-dose screen, Leukemia; type: cell-based; details: Homo sapiens; HL-60(TB), Leukemia; five-dose screen; read-out: GI50
[3] = test system: HOP-92; test: NCI60 five-dose screen, Non-small Cell Lung Cancer; type: cell-based; details: Homo sapiens; HOP-92, Non-small Cell Lung Cancer; five-dose screen; read-out: GI50
[4] = test system: NCI-H226; test: NCI60 five-dose screen, Non-small Cell Lung Cancer; type: cell-based; details: Homo sapiens; NCI-H226, Non-small Cell Lung Cancer; five-dose screen; read-out: GI50
[5] = test system: NCI-H23; test: NCI60 five-dose screen, Non-small Cell Lung Cancer; type: cell-based; details: Homo sapiens; NCI-H23, Non-small Cell Lung Cancer; five-dose screen; read-out: GI50
[6] = test system: NCI-H460; test: NCI60 five-dose screen, Non-small Cell Lung Cancer; type: cell-based; details: Homo sapiens; NCI-H460, Non-small Cell Lung Cancer; five-dose screen; read-out: GI50
[7] = test system: NCI-H522; test: NCI60 five-dose screen, Non-small Cell Lung Cancer; type: cell-based; details: Homo sapiens; NCI-H522, Non-small Cell Lung Cancer; five-dose screen; read-out: GI50
[8] = test system: COLO 205; test: NCI60 five-dose screen, Colon Cancer; type: cell-based; details: Homo sapiens; COLO 205, Colon Cancer; five-dose screen; read-out: GI50
[9] = test system: HCC-2998; test: NCI60 five-dose screen, Colon Cancer; type: cell-based; details: Homo sapiens; HCC-2998, Colon Cancer; five-dose screen; read-out: GI50
[10] = test system: KM12; test: NCI60 five-dose screen, Colon Cancer; type: cell-based; details: Homo sapiens; KM12, Colon Cancer; five-dose screen; read-out: GI50
[11] = test system: SW-620; test: NCI60 five-dose screen, Colon Cancer; type: cell-based; details: Homo sapiens; SW-620, Colon Cancer; five-dose screen; read-out: GI50
[12] = test system: SNB-75; test: NCI60 five-dose screen, CNS Cancer; type: cell-based; details: Homo sapiens; SNB-75, CNS Cancer; five-dose screen; read-out: GI50
[13] = test system: MALME-3M; test: NCI60 five-dose screen, Melanoma; type: cell-based; details: Homo sapiens; MALME-3M, Melanoma; five-dose screen; read-out: GI50
[14] = test system: IGROV1; test: NCI60 five-dose screen, Ovarian Cancer; type: cell-based; details: Homo sapiens, IGROV-1; IGROV1, Ovarian Cancer; five-dose screen; read-out: GI50
[15] = test system: OVCAR-3; test: NCI60 five-dose screen, Ovarian Cancer; type: cell-based; details: Homo sapiens; OVCAR-3, Ovarian Cancer; five-dose screen; read-out: GI50
[16] = test system: OVCAR-5; test: NCI60 five-dose screen, Ovarian Cancer; type: cell-based; details: Homo sapiens; OVCAR-5, Ovarian Cancer; five-dose screen; read-out: GI50
[17] = test system: NCI/ADR-RES; test: NCI60 five-dose screen, Ovarian Cancer; type: cell-based; details: Homo sapiens, Ovarian Cancer, five-dose screen, read-out: GI50
[18] = test system: SK-OV-3; test: NCI60 five-dose screen, Ovarian Cancer; type: cell-based; details: Homo sapiens; SK-OV-3, Ovarian Cancer; five-dose screen; read-out: GI50
[19] = test system: 786–0; test: NCI60 five-dose screen, Renal Cancer; type: cell-based; details: Homo sapiens; 786–0, Renal Cancer; five-dose screen; read-out: GI50
[20] = test system: A498; test: NCI60 five-dose screen, Renal Cancer; type: cell-based; details: Homo sapiens; A498, Renal Cancer; five-dose screen; read-out: GI50
[21] = test system: ACHN; test: NCI60 five-dose screen, Renal Cancer; type: cell-based; details: Homo sapiens, Renal Cancer, five-dose screen, read-out: GI50
[22] = test system: CAKI-1; test: NCI60 five-dose screen, Renal Cancer; type: cell-based; details: Homo sapiens; CAKI-1, Renal Cancer; five-dose screen; read-out: GI50
[23] = test system: SN12C; test: NCI60 five-dose screen, Renal Cancer; type: cell-based; details: Homo sapiens, Renal Cancer, five-dose screen, read-out: GI50
[24] = test system: TK-10; test: NCI60 five-dose screen, Renal Cancer; type: cell-based; details: Homo sapiens; TK-10, Renal Cancer; five-dose screen; read-out: GI50
[25] = test system: DU-145; test: NCI60 five-dose screen, Prostate Cancer; type: cell-based; details: Homo sapiens; DU-145, Prostate Cancer; five-dose screen; read-out: GI50
[26] = test system: MCF7; test: NCI60 five-dose screen, Breast Cancer; type: cell-based; details: Homo sapiens; MCF7, Breast Cancer; five-dose screen; read-out: GI50
[27] = test system: T-47D; test: NCI60 five-dose screen, Breast Cancer; type: cell-based; details: Homo sapiens, T47D; T-47D, Breast Cancer; five-dose screen; read-out: GI50
[28] = test system: SR; test: NCI60 one-dose screen (10 μM), Leukemia; type: cell-based; details: Homo sapiens, 10 μM, Leukemia, read-out: Growth percent rate
[29] = test system: NCI-H226; test: NCI60 one-dose screen (10 μM), Non-small Cell Lung Cancer; type: cell-based; details: Homo sapiens; 10 μM; NCI-H226, Non-small Cell Lung Cancer; read-out: Growth percent rate
[30] = test system: COLO 205; test: NCI60 one-dose screen (10 μM), Colon Cancer; type: cell-based, human; details: Homo sapiens; 10 μM; COLO 205, Colon Cancer; read-out: Growth percent rate
[31] = test system: HCT-15; test: NCI60 one-dose screen (10 μM), Colon Cancer; type: cell-based; details: Homo sapiens; 10 μM; HCT-15, Colon Cancer; read-out: Growth percent rate
[32] = test system: SF-539; test: NCI60 one-dose screen (10 μM), CNS Cancer; type: cell-based, human; details: for activity at 10 µM: Homo sapiens, SF-539, CNS Cancer, read-out: Growth percent rate
[33] = test system: LOX IMVI; test: NCI60 one-dose screen (10 μM), Melanoma; type: cell-based, human; details: for activity at 10 µM: Homo sapiens, LOX IMVI, Melanoma, read-out: Growth percent rate
[34] = test system: UACC-62; test: NCI60 one-dose screen (10 μM), Melanoma; type: cell-based; details: Homo sapiens; 10 μM; UACC-62, Melanoma; read-out: Growth percent rate
[35] = test system: OVCAR-5; test: NCI60 one-dose screen (10 μM), Ovarian Cancer; type: cell-based; details: Homo sapiens; 10 μM; OVCAR-5, Ovarian Cancer; read-out: Growth percent rate
[36] = test system: NCI/ADR-RES; test: NCI60 one-dose screen (10 μM), Ovarian Cancer; type: cell-based; details: Homo sapiens, 10 μM, Ovarian Cancer, read-out: Growth percent rate
[37] = test system: SK-OV-3; test: NCI60 one-dose screen (10 μM), Ovarian Cancer; type: cell-based; details: Homo sapiens; 10 μM; SK-OV-3, Ovarian Cancer; read-out: Growth percent rate
[38] = test system: RXF 393; test: NCI60 one-dose screen (10 μM), Renal Cancer; type: cell-based, human; details: Homo sapiens; 10 μM; RXF 393, Renal Cancer; read-out: Growth percent rate
[39] = test system: UO-31; test: NCI60 one-dose screen (10 μM), Renal Cancer; type: cell-based; details: Homo sapiens; 10 μM; UO-31, Renal Cancer; read-out: Growth percent rate
[40] = test system: MDA-MB-231/ATCC; test: NCI60 one-dose screen (10 μM), Breast Cancer; type: cell-based, human; details: for activity at 10 µM: Homo sapiens, MDA-MB-231/ATCC, Breast Cancer, read-out: Growth percent rate
[41] = test system: HS 578T; test: NCI60 one-dose screen (10 μM), Breast Cancer; type: cell-based; details: Homo sapiens; 10 μM; HS 578T, Breast Cancer; read-out: Growth percent rate
[42] = test system: BT-549; test: NCI60 one-dose screen (10 μM), Breast Cancer; type: cell-based; details: Homo sapiens; 10 μM; BT-549, Breast Cancer; read-out: Growth percent rate
[43] = test system: T-47D; test: NCI60 one-dose screen (10 μM), Breast Cancer; type: cell-based; details: Homo sapiens, T47D; 10 μM; T-47D, Breast Cancer; read-out: Growth percent rate
[44] = test system: MDA-MB-468; test: NCI60 one-dose screen (10 μM), Breast Cancer; type: cell-based; details: Homo sapiens; 10 μM; MDA-MB-468, Breast Cancer; read-out: Growth percent rate

CCC12C=CCN3CCC4(c5cc(NC(=O)CN6CCN(c7ccc(C(F)(F)F)cc7)CC6)c(OC)cc5N(C)C4C(O)(C(=O)OC)C1OC(C)=O)C32 (stereo not shown) [Compound 17] was tested, and the GI50 [1] was 3.24 µM, the GI50 [2] was 2.14 µM and the GI50 [3] was 2.57 µM. For the same compound, the GI50 [4] was 6.46 µM, the GI50 [5] was 10.7 µM and the GI50 [6] was 6.46 µM. It also gave a GI50 [7] of 10.5 µM, a GI50 [8] of 3.24 µM and a GI50 [9] of 7.76 µM. It also gave a GI50 [10] of 3.72 µM, a GI50 [11] of 5.75 µM and a GI50 [12] of 1.45 µM. It also gave a GI50 [13] of 14.8 µM, a GI50 [14] of 10 µM and a GI50 [15] of 2.88 µM. It also gave a GI50 [16] of 10.7 µM, a GI50 [17] of 6.03 µM and a GI50 [18] of 3.31 µM. The GI50 [19] was 6.31 µM, the GI50 [20] was 10.7 µM and the GI50 [21] was 5.62 µM. It also gave a GI50 [22] of 2.63 µM, a GI50 [23] of 7.76 µM and a GI50 [24] of 4.57 µM. The GI50 [25] was 6.46 µM, the GI50 [26] was 3.72 µM and the GI50 [27] was 2.19 µM. The activity at 10 µM [28] was -11.4%, the activity at 10 µM [29] was -61.9% and the activity at 10 µM [30] was -74.5%. For the same compound, the activity at 10 µM [31] was -56.5%, the growth percent rate ([32]; 10 μM one-dose, SF-539 CNS cancer, negative = lethality) was under −80% and the activity at 10 µM [32] was -83.4%. It also gave a growth percent rate ([33]; 10 μM one-dose, LOX-IMVI melanoma, negative = lethality) of −95.37%, an activity at 10 µM [33] of -95.4% and an activity at 10 µM [34] of -54.8%. It also gave an activity at 10 µM [35] of -41.6%, an activity at 10 µM [36] of 0.4% and an activity at 10 µM [37] of 6.93%. It also gave an activity at 10 µM [38] of -36.5%, an activity at 10 µM [39] of 0.08% and a growth percent rate ([40]; 10 μM one-dose, MDA-MB-231/ATCC breast cancer, negative = lethality) of −86.10%. For the same compound, the activity at 10 µM [40] was -86.2%, the activity at 10 µM [41] was -3.36% and the activity at 10 µM [42] was -50.4%. The activity at 10 µM [43] was 9.79% and the activity at 10 µM [44] was -62.5%.

CCC12C=CCN3CCC4(c5cc(NC(=O)CN6CCN(C(c7ccc(F)cc7)c7ccc(F)cc7)CC6)c(OC)cc5N(C)C4C(O)(C(=O)OC)C1OC(C)=O)C32 (stereo not shown) [Compound 20] gave a GI50 [1] of 2.88 µM, a GI50 [2] of 2.19 µM and a GI50 [3] of 5.01 µM. For the same compound, the GI50 [4] was 6.31 µM, the GI50 [5] was 6.76 µM and the GI50 [6] was 3.16 µM. For the same compound, the GI50 [7] was 10.2 µM, the GI50 [8] was 2.45 µM and the GI50 [9] was 3.89 µM. For the same compound, the GI50 [10] was 3.98 µM, the GI50 [11] was 3.98 µM and the GI50 [12] was 1.82 µM. It also gave a GI50 [13] of 8.13 µM, a GI50 [14] of 7.94 µM and a GI50 [15] of 4.37 µM. For the same compound, the GI50 [16] was 3.55 µM, the GI50 [17] was 4.47 µM and the GI50 [18] was 5.89 µM. It also gave a GI50 [19] of 7.76 µM, a GI50 [20] of 5.62 µM and a GI50 [21] of 4.9 µM. For the same compound, the GI50 [22] was 3.16 µM, the GI50 [23] was 4.9 µM and the GI50 [24] was 7.59 µM. It also gave a GI50 [25] of 6.31 µM, a GI50 [26] of 2.95 µM and a GI50 [27] of 3.55 µM. It also gave an activity at 10 µM [28] of 0.34%, an activity at 10 µM [29] of 24.1% and an activity at 10 µM [30] of -60.5%. For the same compound, the activity at 10 µM [31] was 18.3%, the activity at 10 µM [32] was -61.1% and the activity at 10 µM [33] was -61%. For the same compound, the activity at 10 µM [34] was 28.5%, the activity at 10 µM [35] was 66.9% and the activity at 10 µM [36] was 20.9%. The activity at 10 µM [37] was 45.4%, the activity at 10 µM [38] was -44% and the activity at 10 µM [39] was 27.2%. It also gave an activity at 10 µM [40] of -4.47%, an activity at 10 µM [41] of 15.5% and an activity at 10 µM [42] of -37.5%. It also gave an activity at 10 µM [43] of 10.2% and an activity at 10 µM [44] of 10.9%.
